Laboratory results taken from patent US20210361575A1, “LIPID PRODRUGS FOR USE IN DRUG DELIVERY” (NEW MEXICO TECH UNIVERSITY RESEARCH PARK CORPORATION, priority 2018, published 2021).
Like-named read-outs stand apart in the source and are kept apart here.

Experiments:
HeLa cells [1] = experiment: MTT cytotoxicity of 2T-T and 2T-C prodrug-loaded liposomes; format: cell-based; conditions: Homo sapiens
Experimental: To assess the cytotoxicity of 2T-T prodrug-loaded liposomes, HeLa cells were exposed to different concentrations of topotecan or 2T-T loaded liposomes for 72 hours. After the 72 hour incubation period, cell viability was assessed via an MTT assay.
To assess the cytotoxicity of 2T-C prodrug-loaded liposomes, HeLa cells were exposed to different concentrations of cytarabine or 2T-C(NH2 attachment) loaded liposomes for 48 hours. After the 48 hour incubation period, cell viability was assessed via a MTT assay.

HeLa cells [2] = experiment: MTT cytotoxicity of prodrug-loaded liposomes and parent compounds, HeLa; format: cell-based, Human; conditions: 48 hours, free parent compounds or prodrug-incorporated liposomes (20 mol %), read-out: cell viability (MTT), potency
[3] = Differential scanning calorimetry of loaded liposomes; format: physicochemical; conditions: increasing concentration, prodrugs 0 to 37 mol %, parents 0 to 31 mol %; compared to empty liposomes; not extruded
Experimental: Prodrug-loaded liposome (PLL) samples were prepared using 20 mg of lipid per 1 mL of […] for each compound with increasing prodrug concentrations without extrusion. Deionized water was used as the calibration standard. 10 μL from each liposome suspension was transferred and sealed in an aluminum DSC pan. DSC measurements were taken at room temperature, and the sample was then heated from 15° C. to 55° C. at 5° C./min.
DSC is a thermal analytical technique useful for designing lipid drug delivery systems, like liposomes, by determining the compatibility of mixed molecules and compositions with the liposome bilayer. The thermotropic behavior of the liposomes at varying prodrug concentrations is measured to determine whether insertion of the molecules modifies the phase transition temperature. The pre-phase transition was masked by PEG-2000. […] As the concentration was increased, the phase transition returned to the phase transition of empty liposomes. […] All liposome suspensions used for DSC analysis were prepared in deionized water instead of sodium buffer to prevent undesired interactions. The samples were not extruded.

MCF10A cells = experiment: MTT cytotoxicity of prodrug-loaded liposomes and parent compounds, MCF10A; format: cell-based; conditions: 48 hours, free parent compounds or prodrug-incorporated liposomes (20 mol %), read-out: cell viability (MTT), potency
MCF-7 cells = experiment: MTT cytotoxicity of prodrug-loaded liposomes and parent compounds, MCF-7; format: cell-based, Human; conditions: MCF7, 48 hours, free parent compounds or prodrug-incorporated liposomes (20 mol %), read-out: cell viability (MTT), potency
[4] = Liposomal particle size distribution and stability (DLS); format: physicochemical; parameters: liposome diameter (DLS), Pre / liposome diameter (DLS), Post: unit not given beside the values; conditions: for PDI, Post / liposome diameter (DLS), Post: post-extrusion; for PDI, Pre / liposome diameter (DLS), Pre: pre-extrusion
From the text: Liposomal size distribution was characterized via dynamic light scattering (DLS). Measurements were taken with disposable polystyrene sizing cuvettes containing the liposome suspensions. Reported DLS measurements are averages of 3 individually prepared liposome samples.
The size distribution of the parent compounds and prodrug loaded liposomes were monitored over time using dynamic light scattering (DLS).
The size distribution of 2T-T liposomes were characterized via DLS measurement both pre- and post-extrusion. The standard deviations of liposome diameter were lower post extrusion. […] The size distributions of 2T-T liposomes at loaded with various concentrations of 2T-T can be seen in TABLE 2, and FIGS. 10-11. […]

[5] = 2T-T incorporation in liposomes (UV-vis, pre- and post-extrusion); format: physicochemical; conditions: 2T-T liposomes; for Actual Drug Incorporation - Post: post-extrusion; for Actual Drug Incorporation - Pre: pre-extrusion
Experimental: 2T-T liposomes were produced with increasing concentrations of 2T-T, and passed through an extruder to remove any unincorporated 2T-T from the liposome solution. Liposome solutions were analyzed both pre- and post-extrusion using UV-vis spectroscopy with a scanning range of 200 nm-500 nm, 2 nm bandwidth, […], 0.5 nm data interval, and 100 nm/min scan speed. […] Incorporation limits were analyzed up to 70 mol % (147 uM).

[6] = 2T-P and 2T-N incorporation efficiency in liposomes (UV-Vis); format: physicochemical; conditions: parent compound in liposomes
Experimental: Parent compound and prodrug concentrations in liposomes were determined using UV-Vis spectrophotometry; (2T-P: 292 nm; 2T-N: 285 nm). PLL were prepared at varying concentrations between 0 mol % to 50 mol %. The lipid amounts remained equivalent for samples under 50 mol %. Each sample was extruded through a 200 nm pore membrane for a total of 11 passes. Prior and post extrusion liposomes were ruptured by dissolution in DMSO (liposome suspension/DMSO, 1:9, v/v). Samples were analyzed in a quartz cuvette. The following parameters were used: scan speed: 120 nm/min; bandwidth: 2 nm; integration time: 0.15 sec; data interval: 0.30 nm; start wavelength: 500 nm; end wavelength: 190 nm.
N and P (SCHEME 1) are hydrophobic compounds that have been altered to contain an amphiphilic tail (2T-P and 2T-N), altering their incorporation within liposomes, which can be characterized using UV-Vis. This technique measures the decreasing transmittance through a sample surface. The absorption of the liposomes at varying concentrations (after removal of unincorporated material) can be used to calculate how much of a drug has been incorporated into liposomes.

With Nc1ccn([C@@H]2O[C@H](CO)[C@@H](O)[C@@H]2O)c(=O)n1 [cytarabine] the IC50 (HeLa cells [1]; 48 hours) was 4450 ± 6290 nM.

CC[C@@]1(O)C(=O)OCc2c1cc1n(c2=O)Cc2cc3c(CN(C)C)c(O)ccc3nc2-1 [topotecan] gave an IC50 (HeLa cells [1]; 72 hours) of 51 ± 1 nM.

In the case of CCCCCCCCCCCCCCCC(=O)OCC(COP(=O)([O-])OCCNC(=O)CCCC(=O)O[C@@H]1c2cc3c(cc2[C@H](c2cc(OC)c(OC)c(OC)c2)[C@@H]2C(=O)OC[C@H]21)OCO3)OC(=O)CCCCCCCCCCCCCCC.[Na+] (stereo partly drawn) [2T-P, Sodium 2,3-bis (palmitoyloxy) propyl (2-(5-oxo-5-(((5S,5aS,8aS,9S)-8-oxo-9-(3,4,5-trimethoxyphenyl)-5,5a,6,8,8a,9-hexahydrofuro[3′,4′:6,7]naphtha[2,3-d][1,3]dioxol-5-yl)oxy)pentanamido)ethyl)phosphate], the IC50 (HeLa cells [2]) is reported as 1370 ± 44 nM, the “phase transition temperature behaviour (DSC thermograms)” value [3] is reported as “shallow decreasing phase transition temperatures” and the IC50 (MCF10A cells) is reported as 1540 ± 130 nM. For the same molecule, the IC50 (MCF-7 cells) was 2560 ± 126 nM.

With CCCCCCCCCCCCCCCC(=O)OCC(COP(=O)([O-])OCCNC(=O)CCCC(=O)Oc1ccc2nc3c(cc2c1CN(C)C)Cn1c-3cc2c(c1=O)COC(=O)[C@@]2(O)CC)OC(=O)CCCCCCCCCCCCCCC.[Na+] (some centres unmarked) [2T-T] the “PDI, Post” value ([4]; 2T-T 10 mol %) was 0.3 ± 0, the “liposome diameter (DLS), Post” value ([4]; 2T-T 10 mol %) was 130 ± 7 and the “PDI, Pre” value ([4]; 2T-T 10 mol %) was 0.3 ± 0. For the same molecule, the “liposome diameter (DLS), Pre” value ([4]; 2T-T 10 mol %) was 102 ± 19, the “PDI, Post” value ([4]; 2T-T 20 mol %) was 0.3 ± 0 and the “liposome diameter (DLS), Post” value ([4]; 2T-T 20 mol %) was 129 ± 9. For the same molecule, the “PDI, Pre” value ([4]; 2T-T 20 mol %) was 0.3 ± 0.1, the “liposome diameter (DLS), Pre” value ([4]; 2T-T 20 mol %) was 121 ± 16 and the “PDI, Post” value ([4]; 2T-T 30 mol %) was 0.3 ± 0. For the same molecule, the “liposome diameter (DLS), Post” value ([4]; 2T-T 30 mol %) was 118 ± 25, the “PDI, Pre” value ([4]; 2T-T 30 mol %) was 0.3 ± 0 and the “liposome diameter (DLS), Pre” value ([4]; 2T-T 30 mol %) was 98 ± 28. For the same molecule, the “PDI, Post” value ([4]; 2T-T 40 mol %) was 0.3 ± 0, the “liposome diameter (DLS), Post” value ([4]; 2T-T 40 mol %) was 123 ± 10 and the “PDI, Pre” value ([4]; 2T-T 40 mol %) was 0.3 ± 0. The “liposome diameter (DLS), Pre” value ([4]; 2T-T 40 mol %) was 114 ± 24, the “PDI, Post” value ([4]; 2T-T 50* mol %) was 0.3 and the “liposome diameter (DLS), Post” value ([4]; 2T-T 50* mol %) was 122.4. The “PDI, Pre” value ([4]; 2T-T 50* mol %) was 0.3, the “liposome diameter (DLS), Pre” value ([4]; 2T-T 50* mol %) was 122.4 and the “PDI, Post” value ([4]; 2T-T 60* mol %) was 0.3. The “liposome diameter (DLS), Post” value ([4]; 2T-T 60* mol %) was 88.76, the “PDI, Pre” value ([4]; 2T-T 60* mol %) was 0.5 and the “liposome diameter (DLS), Pre” value ([4]; 2T-T 60* mol %) was 182.9. The “PDI, Post” value ([4]; 2T-T 70* mol %) was 0.3, the “liposome diameter (DLS), Post” value ([4]; 2T-T 70* mol %) was 75.43 and the “PDI, Pre” value ([4]; 2T-T 70* mol %) was 0.4. The “liposome diameter (DLS), Pre” value ([4]; 2T-T 70* mol %) was 172.1, the “Actual Drug Incorporation - Post” value ([5]; predicted 10 mol % (28.2 uM)) was 22.1 ± 7.9 µM and the “Actual Drug Incorporation - Pre” value ([5]; predicted 10 mol % (28.2 uM)) was 25.3 ± 6.6 µM. The “Actual Drug Incorporation - Post” value ([5]; predicted 20 mol % (53.4 uM)) was 42.8 ± 4.8 µM, the “Actual Drug Incorporation - Pre” value ([5]; predicted 20 mol % (53.4 uM)) was 46.8 ± 4.8 µM and the “Actual Drug Incorporation - Post” value ([5]; predicted 30 mol % (76.0 uM)) was 66.2 ± 4.9 µM. For the same molecule, the “Actual Drug Incorporation - Pre” value ([5]; predicted 30 mol % (76.0 uM)) was 71.5 ± 5.1 µM, the “Actual Drug Incorporation - Post” value ([5]; predicted 40 mol % (96.5 uM)) was 77.9 ± 12.3 µM and the “Actual Drug Incorporation - Pre” value ([5]; predicted 40 mol % (96.5 uM)) was 82.6 ± 13.1 µM. The “Actual Drug Incorporation - Post” value ([5]; predicted 50* mol % (115.1 uM)) was 116.2 µM, the “Actual Drug Incorporation - Pre” value ([5]; predicted 50* mol % (115.1 uM)) was 113.4 µM and the “Actual Drug Incorporation - Post” value ([5]; predicted 60* mol % (132.0 uM)) was 126.2 µM. For the same molecule, the “Actual Drug Incorporation - Pre” value ([5]; predicted 60* mol % (132.0 uM)) was 125.4 µM, the “Actual Drug Incorporation - Post” value ([5]; predicted 70* mol % (147.6 uM)) was 133.7 µM and the “Actual Drug Incorporation - Pre” value ([5]; predicted 70* mol % (147.6 uM)) was 133.0 µM.

Work on O=C1OCC2=C1C(c1cc(Br)cc(Br)c1)c1ccc3ccc(O)cc3c1N2 (centres unmarked) [N, 7-(3,5-Dibromophenyl)-2-hydroxy-7,11-dihydrobenzo[h]-furo[3,4-b]quinolin-8(10H)-one] yielded an IC50 (HeLa cells [2]; Homo sapiens) of 5 ± 1 nM, a maximum measured loading [6] of roughly 1.1 mol % and an IC50 (MCF10A cells; Homo sapiens, MCF-10A) of 5 nM. It also gave an IC50 (MCF-7 cells; Homo sapiens) of 3 nM.

For COc1cc([C@@H]2c3cc4c(cc3[C@H](O)[C@H]3COC(=O)[C@H]23)OCO4)cc(OC)c1OC [P, podophyllotoxin], the IC50 (HeLa cells [2]; Homo sapiens) was 9 ± 1 nM, the maximum measured loading [6] was roughly 11 mol % and the IC50 (MCF10A cells; Homo sapiens, MCF-10A) was 14 ± 4 nM. The IC50 (MCF-7 cells; Homo sapiens) was 9 ± 4 nM.
